# Reference: patent publication EP2848122A1, “NEW PESTICIDE INCLUSION COMPLEXES, CO[…] COMPLEXES AND THE USE THEREOF AS PESTICIDES” (priority 2012, dated 2013)
# Test: water solubility by ultraviolet (UV) spectrophotometry
# Assay type: physicochemical
# Settings: at 25 °C, free pesticide, read-out: intrinsic solubility
# From the text: Figure 1: Diagram of a solubility study using ultraviolet (UV) spectrophotometry of Bendiocarb as the concentration of cyclodextrin increases. Figure 2: Graph of differential scanning thermogravimetry (DST) of Bifenthrin alone, cyclodextrin (CD) alone, physical mixture of the two, and inclusion complex formed (encapsulated). Figure 3: Curves of differential thermal analysis (DTA) and thermal gravimetric analysis (TGA) of Tetramethrin alone, cyclodextrin (CD) alone, physical mixture of the two, and different inclusion complexes formed according to methods 1 or 2 and with the indicated stechiometries 1:1 or 2:1. Figure 4: Spectra of Nuclear Magnetic Resonance (1 H NMR) of Acetamiprid alone (a), cyclodextrin (CD) alone (b) and formed inclusion complex (c). Figure 5: Scanning electron photographs (SEM) of the structural change of Tebuconazole once the inclusion complex with cyclodextrin is formed. Figure 6: X-ray diffractograms (XRD) of Imidacloprid alone, cyclodextrin (CD) alone, physical mixture of both and inclusion complex formed (encapsulation). Figure 7: Diagram of the three-dimensional structures of the Acetamiprid-cyclodextrin complex by formation of a single crystal. Figure 8: Structural modelling by means of the program MACROMODEL of the Acetamiprid-cyclodextrin dimer. Figure 9: Performance of the Bendiocarb microencapsulation reaction (DSC). […]
smiles,measurement,value
CNC(=O)Oc1cccc2c1OC(C)(C)O2 [Bendiocarb],solubility,600 µM
